Source: US6875761B2 (Eisai Co., Ltd., priority 1997, dated 2005)
Structures can show the parent of a compound that is named as a salt.

**Q.** For `CCN1CCN(c2nc(-c3ccc(OCC(C)(C)O)cc3)cc3cccnc23)CC1` (as salt: hydrochloride) [Example 250, 8-(1-ethylpiperazin-4-yl)-6-[4-(2-hydroxy-2-methylpropoxy)phenyl]-1,7-naphthyridine Dihydrochloride], which melting point is on record?
**A.** 127 to 132 °C

**Q.** For `CCN1CCN(c2nc(-c3ccc(OC)cc3)cc3ncccc23)CC1` (as salt: hydrochloride) [Example 252, 5-(1-ethylpiperazin-4-yl)-7-(4-methoxyphenyl)-1,6-naphthyridine Dihydrochloride], which melting point is on record?
**A.** 242 to 245 °C

**Q.** Which melting point does the source give for `CN1CCN(c2nc(-c3ccc(OCCO)cc3)cc3ccsc23)CC1` (as salt: hydrochloride) [Example 253, 5-[4-(2-hydroxyethoxy)phenyl]-7-(4-methylpiperazin-1-yl)thieno[2,3-c]pyridine Hydrochloride] here?
**A.** 141 to 143 °C

**Q.** Which melting point does the source give for `CCN1CCN(c2nc(-c3cccc(OCCO)c3)cc3ccsc23)CC1` (as salt: hydrochloride) [Example 258, 7-(1-ethylpiperazin-4-yl)-5-[3-(2-hydroxyethoxy)phenyl]thieno[2,3-c]pyridine Dihydrochloride] here?
**A.** 132 to 135 °C

**Q.** Which melting point does the source give for `CCN1CCN(c2nc(-c3ccc(OCCO)cc3)cc3ccsc23)CC1` (as salt: hydrochloride) [Example 259, 7-(4-ethylpiperazin-1-yl)-5-(4-hydroxyethoxyphenyl)thieno[2,3-c]pyridine Hydrochloride] here?
**A.** 135 to 136 °C

**Q.** For `CCN1CCN(c2nc(-c3ccc(OCC(C)(C)O)cc3)cc3ccsc23)CC1` (as salt: hydrochloride) [Example 260, 7-(1-Ethylpiperazin-4-yl)-5-[4-(2-hydroxy-2-methylpropoxy)phenyl]thieno[2,3-c]pyridine dihydrochloride], which melting point is on record?
**A.** 137 to 139 °C

**Q.** With `CCN1CCN(c2nc(-c3ccc(N4CCOCC4)nc3)cc3ccsc23)CC1` (as salt: hydrochloride) [Example 263, 5-[2-(4-morpholinyl)pyridin-5-yl]-7-(4-ethylpiperazin-1-yl)thieno[2,3-c]pyridine Hydrochloride] as the compound, how does the melting point read?
**A.** 182 to 185 °C

**Q.** Which melting point does the source give for `CCN1CCN(c2nc(-c3ccc(N4CCSCC4)nc3)cc3ccsc23)CC1` (as salt: hydrochloride) [Example 264, 5-[2-(4-thiomorpholinyl)pyridin-5-yl]-7-(4-ethylpiperazine-1-yl)thieno[2,3-c]pyridine Hydrochloride] here?
**A.** 201 to 203 °C

**Q.** Which melting point does the source give for `CCN1CCN(c2nc(-c3ccc(N4CCC(O)CC4)nc3)cc3ccsc23)CC1` (as salt: hydrochloride) [Example 265, 5-[2-(4-hydroxypiperidin-1-yl)pyridin-5-yl]-7-(4-ethylpiperazin-1-yl)thieno[2,3-c]pyridine Hydrochloride] here?
**A.** 208 to 210 °C

**Q.** With `CCN1CCN(c2nc(-c3ccc(C4=CCOCC4)cc3)cc3ccsc23)CC1` (as salt: hydrochloride) [Example 266, 5-[4-(5,6-dihydro-2H-pyran-4-yl)phenyl]-7-(4-ethylpiperazin-1-yl)thieno[2,3-c]pyridine Hydrochloride] as the compound, how does the melting point read?
**A.** 176 to 179 °C

**Q.** With `CCN1CCN(c2nc(-c3ccc(OC(C)COC)nc3)cc3ccsc23)CC1` (stereo not shown) (as salt: hydrochloride) [Example 267, 5-[2-(2-methoxyethoxy-2-methyl)pyridin-5-yl]-7-(4-ethylpiperazin-1-yl)thieno[2,3-c]pyridine Hydrochloride] as the compound, how does the melting point read?
**A.** 112 to 114 °C

**Q.** Which melting point does the source give for `CCN1CCN(c2nc(-c3ccc(OCCOC)nc3)cc3ccsc23)CC1` (as salt: hydrochloride) [Example 269, 5-[2-(2-methoxyethoxy)pyridin-5-yl]-7-(4-ethylpiperazin-1-yl)-thieno[2,3-c]pyridine hydrochloride] here?
**A.** 116 to 118 °C

**Q.** With `CCN1CCN(c2nc(-c3ccc(C4=CCC(O)CC4)cc3)cc3ccsc23)CC1` (stereo not shown) (as salt: hydrochloride) [Example 270, 5-[4-(4-hydroxycyclohexen-1-yl)phenyl]-7-(4-ethylpiperazin-1-yl)thieno[2,3-c]pyridine hydrochloride] as the compound, how does the melting point read?
**A.** 168 to 170 °C
